Reference: patent US11911480B2, “Self-emulsifying composition of ω-3 fatty acid” (priority 2015, dated 2024)
Where two headings read alike, the source gives them in different places.

Columns and labels:
[1] = human, in vivo, po, 1800 mg
Procedure: The capsule having the self-emulsifying composition of the present invention containing 80% by weight of EPA-E as its content was orally administered to human (12 cases, healthy adult males of 20 to 40 years old with a body weight of 55.0 to 77.0 kg and a BMI of 18.5 or more but less than 25.0) under fasting conditions to evaluate the change of blood EPA concentration. The self-emulsifying composition in an amount corresponding to 1800 mg of EPA-E was orally administered in single dose to each human who had been fasted since 10 hours or more before the administration by using 200 mL of water in the morning under fasting. The blood was collected 0.5, 1, 1.5, 2, 3, 4, 5, 6, 7, 8, 9, 10, 12, 15, 18, 24, 48 and 72 hours after the administration. Immediately after the collection, the blood was cooled on ice, and centrifuged at 2000×g at 4° C. for 10 minutes to separately collect the plasma. After having stored the resulting plasma at a temperature not higher than −20° C. in frozen state, concentration of the EPA in the plasma was measured by LC/MS/MS (method in which a sample is isolated by liquid chromatography, then subjected to mass spectrometry to conduct separation and measurement thereon). […]
In the calculation of each parameter, correction was made by subtracting the blood EPA concentration before the administration from the measured blood concentration.

[2] = human, in vivo, po, 3600 mg
Procedure: The capsule having the self-emulsifying composition of the present invention containing 80% by weight of EPA-E as its content was orally administered to human (12 cases, healthy adult males of 20 to 40 years old with a body weight of 55.0 to 77.0 kg and a BMI of 18.5 or more but less than 25.0) under fasting conditions to evaluate the change of blood EPA concentration. The self-emulsifying composition in an amount corresponding to 1800 mg of EPA-E was orally administered in single dose to each human who had been fasted since 10 hours or more before the administration by using 200 mL of water in the morning under fasting. The blood was collected 0.5, 1, 1.5, 2, 3, 4, 5, 6, 7, 8, 9, 10, 12, 15, 18, 24, 48 and 72 hours after the administration. […] After having stored the resulting plasma at a temperature not higher than −20° C. in frozen state, concentration of the EPA in the plasma was measured by LC/MS/MS (method in which a sample is isolated by liquid chromatography, then subjected to mass spectrometry to conduct separation and measurement thereon). […]
This test was conducted on 6 humans. […] In the calculation of each parameter, correction was made by subtracting the blood EPA concentration before the administration from the measured blood concentration.

Cmax [1]: 4600 ng/mL
Cmax [2]: 3600 ng/mL
Structure (SMILES): CC/C=C\C/C=C\C/C=C\C/C=C\C/C=C\CCCC(=O)OCC [EPA-E stock solution, Ethyl eicosapentaenoate]
